Some test systems named below: SNB-19 CNS; OVCAR-4 ovarian; NCI-H226 lung; SF-268 CNS; CAKI-1 renal; K-562 leukemia; NCI-H23 lung; A549 NSCLC; HCT-15 colon; HL-60(TB) leukemia.
Common to all, as to experiment: NCI tumour cell line growth inhibition, 48 h

The text below walks through data of PubChem BioAssay (NCI).

Each structure is given as a SMILES string.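 These data come from cells grown in 96-well plates and exposed to compound for 48 hours at five concentrations. At the TGI there is no net growth.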

For the molecule `Cc1cccc2c(N)c3cccc(C(=O)NCC[N+](C)(C)Cc4sc(N5CCOCC5)nc4[N+](=O)[O-])c3nc12`, the TGI with SNB-19 CNS was over 100 µM; with OVCAR-4 ovarian, 14.4 µM; with NCI-H226 lung it was 17.4 µM; in the experiment on SF-268 CNS, over 100 µM; in the experiment on CAKI-1 renal it was 4.64 µM; with K-562 leukemia it was over 100 µM. Besides, the results for the TGI in the experiment on NCI-H23 lung, with A549 NSCLC and in the experiment on HCT-15 colon were 15.3 µM, 2.55 µM and 13.3 µM, respectively.

Regarding `C=C(C)CC1=C(C(=S)NCCO[Si](C)(C)C(C)(C)C)C(OCC)(OCC)C1=O`, the TGI in the experiment on SNB-19 CNS was 38.3 µM; with OVCAR-4 ovarian, 34.3 µM; with SF-268 CNS, 47.4 µM; in the experiment on CAKI-1 renal, 31.9 µM; with HL-60(TB) leukemia it was over 100 µM; in the experiment with NCI-H23 lung, 40.5 µM. In addition, the values for the TGI in the experiment on A549 NSCLC and with HCT-15 colon were 36.9 µM and 47.5 µM, respectively.

Turning to `O=C1C[C@H](c2ccccc2)C2(C(=O)c3ccccc3C2=O)[C@@H](c2ccccc2)C1`, the TGI with SNB-19 CNS was over 100 µM; in the experiment on OVCAR-4 ovarian, over 100 µM; in the experiment on NCI-H226 lung, 69.1 µM; in the experiment with CAKI-1 renal, over 100 µM; in the experiment with HL-60(TB) leukemia it was over 100 µM; in the experiment with K-562 leukemia, over 100 µM. Moreover, the TGI in the experiment with NCI-H23 lung and with HCT-15 colon was over 100 µM each time.

As to `c1ccc(C(=NNc2nc3ccccc3[nH]2)c2ccccn2)nc1`, the TGI was over 100 µM in the experiment with SNB-19 CNS; over 100 µM with OVCAR-4 ovarian; 0.448 µM in the experiment with NCI-H226 lung; over 55.3 µM in the experiment with SF-268 CNS; 2.07 µM in the experiment with CAKI-1 renal; over 100 µM with K-562 leukemia. In addition, the TGI was over 100 µM in the experiment on NCI-H23 lung, over 89.9 µM in the experiment on A549 NSCLC and over 100 µM in the experiment with HCT-15 colon.

Turning to `Sc1nnc(-c2ccccc2Nc2ccccc2-c2nnc(S)n2-c2ccccc2)n1-c1ccccc1`, the TGI is over 100 µM with SNB-19 CNS; over 100 µM with OVCAR-4 ovarian; over 100 µM with NCI-H226 lung; over 100 µM in the experiment with SF-268 CNS; over 100 µM with CAKI-1 renal; 67.1 µM in the experiment on HL-60(TB) leukemia. Further, the TGI in the experiment with K-562 leukemia, in the experiment on NCI-H23 lung and in the experiment on HCT-15 colon was over 100 µM each time.

In the case of `Cc1ccc(NC(=O)c2cccc([N+](=O)[O-])c2O)c(C)c1`, the TGI with SNB-19 CNS was over 100 µM; in the experiment on OVCAR-4 ovarian, over 100 µM; with NCI-H226 lung, over 100 µM; in the experiment with SF-268 CNS, over 100 µM; in the experiment with CAKI-1 renal it was 79.8 µM; in the experiment on HL-60(TB) leukemia it was 55.6 µM. Moreover, the TGI with K-562 leukemia is over 100 µM; in the experiment on NCI-H23 lung, over 100 µM; with A549 NSCLC it was 63.8 µM.

With `O=C1c2ccccc2C2(c3ccc(Cl)cc3)NCc3ccccc3CN12` (stereo unspecified), the TGI in the experiment with SNB-19 CNS is 51.6 µM; in the experiment with OVCAR-4 ovarian it was 79.3 µM; with SF-268 CNS it was over 100 µM; in the experiment on CAKI-1 renal it was over 100 µM; in the experiment with HL-60(TB) leukemia it was 40.6 µM; with K-562 leukemia it was over 100 µM. Further, the values for the TGI with NCI-H23 lung, with A549 NSCLC and with HCT-15 colon were 48.4 µM, 43.8 µM and 60.7 µM, respectively.

In the case of `CC(=O)c1ccc2c(c1)oc(=O)n2CCN(C)C`, the TGI in the experiment with NCI-H226 lung, with SF-268 CNS, in the experiment on CAKI-1 renal, with HL-60(TB) leukemia, in the experiment on NCI-H23 lung and in the experiment on HCT-15 colon was over 100 µM each time.

Turning to `CC1CCC2c3c([nH]c4ccccc34)C3C(=O)N(C4CCCCC4)C(=O)C3C2C1` (stereo unspecified), the TGI was 32 µM in the experiment on SNB-19 CNS; 36 µM with NCI-H226 lung; 29.8 µM with SF-268 CNS; 30.8 µM with CAKI-1 renal; over 100 µM in the experiment on HL-60(TB) leukemia; 47.2 µM in the experiment on K-562 leukemia. Also, the TGI in the experiment on NCI-H23 lung is 54.2 µM; in the experiment on A549 NSCLC, 50.3 µM; in the experiment on HCT-15 colon, over 100 µM.

Regarding `C=C1c2nc3ccccc3n2C=C(c2ccc(Cl)cc2)N1c1ccccc1`, the TGI is 19.6 µM in the experiment with SNB-19 CNS; 29.9 µM in the experiment on OVCAR-4 ovarian; 3.72 µM with NCI-H226 lung; 39.4 µM in the experiment with CAKI-1 renal; over 100 µM with HL-60(TB) leukemia; over 100 µM in the experiment with K-562 leukemia. In addition, the TGI in the experiment with NCI-H23 lung is 23.9 µM; in the experiment with A549 NSCLC, 27.1 µM; in the experiment on HCT-15 colon, 24.5 µM.

Consider `CC(/C=N/NC1=NCCCCN1)=N\NC1=NCCCCN1`, for which the TGI in the experiment with SNB-19 CNS, with OVCAR-4 ovarian, with NCI-H226 lung, in the experiment with SF-268 CNS, in the experiment with CAKI-1 renal and in the experiment on K-562 leukemia was over 100 µM each time. For the same molecule, the TGI with NCI-H23 lung, in the experiment on A549 NSCLC and with HCT-15 colon was over 100 µM throughout.

For the molecule `Brc1cccc(C2(CCCC3(c4cccc(Br)n4)OCCO3)OCCO2)n1`, the TGI in the experiment with SNB-19 CNS was over 100 µM; in the experiment with OVCAR-4 ovarian, over 100 µM; with NCI-H226 lung it was over 100 µM; with SF-268 CNS, 71.5 µM; in the experiment on CAKI-1 renal, over 100 µM; with K-562 leukemia, over 100 µM. In addition, the TGI in the experiment on NCI-H23 lung, in the experiment with A549 NSCLC and with HCT-15 colon was over 100 µM in each case.

In the case of `CC(C)(C)OC(=O)NC(CCCCNC(=O)OCc1ccccc1)C(=O)NC(CCCCNC(=O)OCc1ccccc1)C(=O)ON1C(=O)CCC1=O` (stereo unspecified), the TGI in the experiment on SNB-19 CNS, with NCI-H226 lung, with HL-60(TB) leukemia, with K-562 leukemia, in the experiment on NCI-H23 lung and in the experiment on A549 NSCLC was over 100 µM each time. This molecule displayed a TGI with HCT-15 colon of over 100 µM.

As for `Oc1[nH]c2ccccc2c1N=NC(=S)N1CCCCCC1`, the TGI in the experiment with SNB-19 CNS was 15.4 µM; with OVCAR-4 ovarian, 3.91 µM; with NCI-H226 lung, 4.45 µM; in the experiment on SF-268 CNS, 11.8 µM; in the experiment on CAKI-1 renal, 4.62 µM; with NCI-H23 lung, 8.51 µM. The values for the TGI with A549 NSCLC and with HCT-15 colon were 6.57 µM and 10 µM, respectively.

Take `CC(=O)OCC1OC(OCC2OC(N3C(=S)N[C@H]([C@@H](O)[C@H](O)[C@H](O)CO)[C@H]3O)C(OC(C)=O)C(OC(C)=O)C2OC(C)=O)C(OC(C)=O)C(OC(C)=O)C1OC(C)=O` (stereo partly specified): the TGI in the experiment with SNB-19 CNS, in the experiment on OVCAR-4 ovarian, in the experiment with SF-268 CNS, with CAKI-1 renal, with K-562 leukemia and in the experiment with NCI-H23 lung was over 100 µM in each case. The TGI in the experiment with A549 NSCLC and with HCT-15 colon was over 100 µM throughout.
